Several values for one entry are separate records, joined by “and”; a condition that tells them apart may be missing. Identical values can stand only once.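 Assay format: 96-well plates, 48-hour exposure. At the GI50, growth is halved. TGI marks complete inhibition of growth.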
Legend:
Test in all cases: DTP human tumour cell line panel, 48 h
KM12 colon = test system: KM12 colon
HCT-15 colon = test system: HCT-15 colon
HCT-116 colon = test system: HCT-116 colon
CCRF-CEM leukemia = test system: CCRF-CEM leukemia
SF-539 CNS = test system: SF-539 CNS
HOP-92 NSCLC = test system: HOP-92 NSCLC
OVCAR-8 ovarian = test system: OVCAR-8 ovarian
OVCAR-3 ovarian = test system: OVCAR-3 ovarian
OVCAR-4 ovarian = test system: OVCAR-4 ovarian
ACHN renal = test system: ACHN renal

| SMILES | TGI (KM12 colon) | TGI (HCT-15 colon) | TGI (HCT-116 colon) | TGI (CCRF-CEM leukemia) | TGI (SF-539 CNS) [µM] | TGI (HOP-92 NSCLC) | TGI (OVCAR-8 ovarian) [µM] | TGI (OVCAR-3 ovarian) [µM] | TGI (OVCAR-4 ovarian) | TGI (ACHN renal) | GI50 (KM12 colon) [µM] | GI50 (HCT-15 colon) [nM] | GI50 (HCT-116 colon) [nM] | GI50 (CCRF-CEM leukemia) [nM] | GI50 (SF-539 CNS) [µM] | GI50 (HOP-92 NSCLC) [µM] | GI50 (OVCAR-8 ovarian) [nM] | GI50 (OVCAR-3 ovarian) [µM] | GI50 (OVCAR-4 ovarian) [µM] | GI50 (ACHN renal) [nM] |
| --- | --- | --- | --- | --- | --- | --- | --- | --- | --- | --- | --- | --- | --- | --- | --- | --- | --- | --- | --- | --- |
| CC(C)(C)CC(C)(C)c1cc2c(O)c(c1)Cc1cc(C(C)(C)CC(C)(C)C)cc(c1O)Cc1cc(C(C)(C)CC(C)(C)C)cc(c1O)Cc1cc(C(C)(C)CC(C)(C)C)cc(c1O)Cc1cc(C(C)(C)CC(C)(C)C)cc(c1O)Cc1cc(C(C)(C)CC(C)(C)C)cc(c1O)C2 | > 100 µM | > 100 µM | > 100 µM | > 100 µM | > 100 | > 100 µM | > 100 | > 100 | > 100 µM | > 100 µM |  |  |  |  |  |  |  |  |  |  |
| CC(=O)OCC(=O)O[C@@H]1C[C@]2(C(C)C)O[C@@]1(C)[C@@H]1CC[C@@H](C)[C@H]1[C@@H]2OC(=O)/C=C/c1ccccc1 | > 100 µM | > 100 µM | > 100 µM | > 100 µM | > 100 | 22.9 µM | > 56.3 | > 100 | > 100 µM | 12.5 µM | 26.7 | 17800 | 16100 | 21300 | 28.2 | 8.81 | 74.7 | 32.8 | 22.7 | 31.6 |
| CN(N=O)C(=O)N[C@@H](C=O)[C@@H](O)[C@H](O)[C@H](O)CO | > 750 µM | 666 µM and > 750 µM | 653 µM and > 750 µM | 522 µM and > 750 µM | > 750 | 621 µM and > 750 µM | > 750 | 670 | 609 µM and > 750 µM | > 750 µM | > 750 | > 750000 | > 750000 | > 750000 | > 750 | > 750 | > 750000 |  | > 750 |  |
| O=C(Nc1cccc(Oc2nnc(Cl)c3ccccc23)c1)Nc1ccc(Cl)c(C(F)(F)F)c1 | 2.97 µM | 3.53 µM | 3.51 µM | 17.5 µM | 4.01 | 1.96 µM | 9.5 | 4.46 | 6.01 µM | 3.8 µM | 0.701 | 765 | 1050 | 208 | 1.38 | 0.352 | 1300 | 0.773 | 0.593 | 711 |
| NNC(=S)N/N=C(/C(=O)Nc1cc(Cl)ccc1Cl)C1C(=O)Nc2ccccc2S1=O (stereo not drawn) | > 100 µM | > 100 µM | > 100 µM | > 100 µM | > 100 | > 100 µM | > 100 | > 100 | > 100 µM | > 100 µM |  |  |  |  |  |  |  |  |  |  |
| COc1c(NC(C)=O)cc(C)cc1NC(C)=O | > 100 µM | > 100 µM | > 100 µM | > 100 µM | > 100 | > 100 µM | > 100 | > 100 | > 100 µM | > 100 µM |  |  |  |  |  |  |  |  |  |  |
| O=C1C2=Nc3ccccc3C(O)N2c2ccccc21 (stereo not drawn) | > 100 µM | > 100 µM | > 100 µM | > 100 µM | > 100 | > 100 µM | > 100 | 56.3 | > 100 µM | > 100 µM |  |  |  |  |  |  |  |  |  |  |
| CC(=O)c1cc2c(cc1Nc1c3ccccc3nc3occ(Cl)c13)OCO2 | 0.494 µM |  | 1.07 µM | 0.291 µM | 0.0998 | > 100 µM | 0.766 | 0.178 | > 100 µM | > 100 µM | 0.0556 | 328 | 246 | 46.8 | 0.0302 | 12.7 | 205 | 0.0725 | 82.9 | 460 |
| O=C1c2ccccc2C(=O)c2c(NCCNCCO)ccc(O)c21 | 8.1 µM | 13.7 µM | 12.9 µM | 17.3 µM | 12.1 | 13.4 µM | 13.5 | 19.5 | 6.53 µM | 11.2 µM |  |  |  |  |  |  |  |  |  |  |
| COC(=O)c1ccc(NC(=O)Nc2ccc3oc(=O)c4ccccc4c3c2)cc1 | > 100 µM | > 100 µM | > 100 µM | 21.7 µM | > 100 | 80.9 µM | > 100 | 54.6 | > 100 µM | > 100 µM | > 100 | > 100000 | 32400 | 177 | 62.5 | 28.5 | 36600 | 29.5 | 33.5 | 29500 |
| Cn1nnnc1N/N=C/c1ccccc1 | > 10 µM | > 10 µM | > 10 µM | > 10 µM | > 10 | > 10 µM | > 10 | > 10 | > 10 µM | > 10 µM |  |  |  |  |  |  |  |  |  |  |
| CC1CCN(CCCCCOc2ccc3oc4cc(Cl)ccc4c(=O)c3c2)CC1 | 14.4 µM | 4.1 µM | 7.86 µM | 14.2 µM | 12.3 | 14.8 µM | 16 | 14.2 | 13.6 µM | 14.7 µM | 6.26 | 1320 | 2420 | 5760 | 5.9 | 6.51 | 7950 | 7 | 6.22 | 8010 |
| CN(C)CCOc1ccc(/C(=C(/CCCl)c2ccccc2)c2ccccc2)cc1 | 12.8 µM and 32.4 µM | 7.87 µM and 28.1 µM | 5.33 µM and 30.4 µM | 2.85 µM and 23.5 µM |  | 17.1 µM |  |  | 5.1 µM and 32.9 µM | 6.55 µM and 31.9 µM | 1.18 | 1950 | 1590 | 1060 | 0.891 |  | 1080 | 0.928 | 1.47 | 1800 |
| C[C@]12CCc3nonc3C1CC[C@@H]1C2CC[C@]2(C)NC(=O)CCC12 (stereo partly drawn) | > 100 µM | > 100 µM | > 100 µM | > 100 µM | > 100 | > 100 µM | > 100 | > 100 | > 100 µM | > 100 µM |  |  |  |  |  |  |  |  |  |  |

— PubChem BioAssay (NCI)
